{"source": "patent US20030198617A1", "about": "“Pharmaceutical tryptophan containing dipeptide compositions and methods of use thereof” (priority 1993, published 2003)", "key": {"[1]": {"experiment": "Chronic pyoderma (staphylococcal skin diseases), clinical and immunological testing", "method": "IM862 was used in the form of a 0.01% solution (100 μg of the preparation in one IV tube). The preparation was administered intranasally, daily, at 100 μg for a course of 5 days.\nThe effectiveness of IM862 use was evaluated according to the subjective impression of the patient, clinical findings, body temperature, general clinical and immunological testing of the peripheral blood. Also, bacteriological investigation of the disease agents were conducted before and after treatment with IM862.\nIM862 was administered to 59 chronic pyoderma patients. […] The patients ranged in age from 18 to 56 years old. Thirty-two men and 27 women were studied. Duration of illness was from 5 months to 16 years.\nFor determining the norm of T- and B-system immunity and non-specific resistance, 175 healthy donors (men & women), aged 18 to 50 years, were examined. Lymphocytes were extracted from the heparinized (25 U/ml) peripheral blood of healthy and ill persons in a ficoll-urotrast density gradient. T-lymphocytes were identified by spontaneous rosette-formation with ram erythrocytes. The T-lymphocyte subpopulations were determined with the aid of mouse monoclonal antibodies, OKT4 and OKT8, as well as with the aid of a theophylline resistance test. B-lymphocytes were determined by rosette-formation with mouse erythrocytes. The B-lymphocyte subpopulations were determined according to the presence of various classes of immunoglobulins (Ig+, IgM^+, IgG^+, IgA^+) on their surfaces with the aid of monospecific antibodies. In serum, the content of the immunoglobulins M, G, & A, and the C3-component of complement was determined by using monospecific sera to human immunoglobulins with the radial immunodiffusion method. The percentage of migration inhibition in a LMIR with PHA and ConA was determined using the hemolytic staphylococcus allergen (HSA). The phagocytic activity of the neutrophils (percent and absolute quantity of phagocytic polymorphonuclear leukocytes) and the phagocytic index (mean quantity of microorganisms absorbed by a single phagocyte) were studied with the use of a museum culture of the “Oxford 209P” strain. Other analyzed parameters were the cationic protein content (MCC) in the neutrophils, the serum immune complexes (CIC), the natural killer activity (CI) by the 3H-uridine test, and the quantity of neutrophils forming rosettes with sheep erythrocytes."}, "[2]": {"experiment": "Blood parameters of Chernobyl victims after 3 years of treatment", "format": "in vivo, human", "details": "after therapy, IM862", "excerpt": "Blood parameters after 3 years of such treatment were restored to the statistical norm prior to their exposure to the radiation."}, "[3]": {"details": "Abscessing and indurative comedones"}, "[4]": {"details": "after IM862, phagocytosis with staph. cells"}, "[5]": {"details": "after treatment with IM862 (Table 21)"}}, "note": "Marks after values point to notes of the source that are not given here.", "data": [{"substance": "Glu-Trp [IM862]", "values": [{"measurement": "Considerable Improvement, number of patients", "setting": "[1]; [3]", "result": 1}, {"measurement": "Recovery, number of patients", "setting": "[1]; [3]", "result": 4}, {"measurement": "improvement, number of patients", "setting": "[1]; [3]", "result": 1}, {"measurement": "Considerable Improvement, number of patients", "setting": "[1]; Chronic abscessing pyoderma", "result": 2}, {"measurement": "Recovery, number of patients", "setting": "[1]; Chronic abscessing pyoderma", "result": 5}, {"measurement": "Recovery, number of patients", "setting": "[1]; Chronic furunculosis", "result": 10}, {"measurement": "Recovery, number of patients", "setting": "[1]; Chronic recurring folliculitis-deep", "result": 1}, {"measurement": "Recovery, number of patients", "setting": "[1]; Chronic recurring osteofolliculitis", "result": 3}, {"measurement": "Considerable Improvement, number of patients", "setting": "[1]; Chronic ulcerative pyoderma", "result": 2}, {"measurement": "Considerable Improvement, number of patients", "setting": "[1]; Papulous-pustulous comedones", "result": 3}, {"measurement": "Recovery, number of patients", "setting": "[1]; Papulous-pustulous comedones", "result": 4}, {"measurement": "Considerable Improvement, number of patients", "setting": "[1]; Total number of patients", "result": 8}, {"measurement": "improvement, number of patients", "setting": "[1]; Total number of patients", "result": 1}, {"measurement": "Recovery, number of patients", "setting": "[1]; Total number of patients (36 resistant to standard therapy)", "result": 27}, {"measurement": "CIC units", "setting": "[1]; after IM862", "result": "45.9 ± 4.9", "unit": "units"}, {"measurement": "Cathion proteins MCC × 10^9/l", "setting": "[1]; after IM862", "result": "1.46 ± 0.05^y"}, {"measurement": "Etr-RFC/Ets-RFC", "setting": "[1]; after IM862", "result": "5.32 ± 1.00"}, {"measurement": "LMIF with ConA %", "setting": "[1]; after IM862", "result": "58.3 ± 3.9^yy %"}, {"measurement": "LMIF with HSA %", "setting": "[1]; after IM862", "result": "84.9 ± 5.5^yy %"}, {"measurement": "LMIF with PHA %", "setting": "[1]; after IM862", "result": "40.2 ± 3.9^y %"}, {"measurement": "Lymphocytes %", "setting": "[1]; after IM862", "result": "30.8 ± 1.4", "unit": "%"}, {"measurement": "Lymphocytes ×10^9/l", "setting": "[1]; after IM862", "result": "2.41 ± 0.14 ×10^9/l"}, {"measurement": "Monocytes × 10^9/l", "setting": "[1]; after IM862", "result": "0.43 ± 0.04 × 10^9/l"}, {"measurement": "NK-activity (CI) %", "setting": "[1]; after IM862", "result": "45.18 ± 2.55^y %"}, {"measurement": "Neutrophils En-RFC %", "setting": "[1]; after IM862", "result": "14.7 ± 1.6", "unit": "%"}, {"measurement": "Neutrophils En-RFC × 10^9/l", "setting": "[1]; after IM862", "result": "0.7 ± 0.11 × 10^9/l"}, {"measurement": "Neutrophils × 10^9/l", "setting": "[1]; after IM862", "result": "4.54 ± 0.25 × 10^9/l"}, {"measurement": "Phagocytic index % × 10^9/l", "setting": "[1]; after IM862", "result": "5.31 ± 0.20^y"}, {"measurement": "T4/T8", "setting": "[1]; after IM862", "result": "1.32 ± 011^y^"}, {"measurement": "T-helpers Etr-RFC %", "setting": "[1]; after IM862", "result": "51.7 ± 2.8^y %"}, {"measurement": "T-helpers Etr-RFC ×10^9/l", "setting": "[1]; after IM862", "result": "1.28 ± 0.09^y ×10^9/l"}, {"measurement": "T-helpers OKT4^+ %", "setting": "[1]; after IM862", "result": "20.3 ± 2.9", "unit": "%"}, {"measurement": "T-helpers OKT4^+ ×10^9/l", "setting": "[1]; after IM862", "result": "0.46 ± 0.05^y ×10^9/l"}, {"measurement": "T-lymphocytes E-RFC %", "setting": "[1]; after IM862", "result": "69.3 ± 1.9^y %"}, {"measurement": "T-lymphocytes E-RFC ×10^9/l", "setting": "[1]; after IM862", "result": "1.68 ± 0.12^y ×10^9/l"}, {"measurement": "T-suppressors Etr-RFC %", "setting": "[1]; after IM862", "result": "17.9 ± 2.4", "unit": "%"}, {"measurement": "T-suppressors Etr-RFC ×10^9/l", "setting": "[1]; after IM862", "result": "0.45 ± 0.08 ×10^9/l"}, {"measurement": "T-suppressors OKT8 %", "setting": "[1]; after IM862", "result": "17.1 ± 1.9", "unit": "%"}, {"measurement": "T-suppressors OKT8 ×10^9/l", "setting": "[1]; after IM862", "result": "0.39 ± 0.04 ×10^9/l"}, {"measurement": "Leukocytes ×10^9/l", "setting": "[1]; after IM862 (Table 22)", "result": "7.75 ± 0.33 ×10^9/l"}, {"measurement": "Monocytes %", "setting": "[1]; after IM862 (Table 24)", "result": "5.65 ± 0.40", "unit": "%"}, {"measurement": "Neutrophils %", "setting": "[1]; after IM862 (Table 24)", "result": "59.8 ± 1.6", "unit": "%"}, {"measurement": "Phagocytic activity* %", "setting": "[1]; [4]", "result": "48.9 ± 2.8", "unit": "%"}, {"measurement": "Phagocytic activity* × 10^9/l", "setting": "[1]; [4]", "result": "2.36 ± 0.27 × 10^9/l"}, {"measurement": "B-lymphocytes (IgA^+) %", "setting": "[1]; after treatment with IM862", "result": "2.4 ± 0.3", "unit": "%"}, {"measurement": "B-lymphocytes (IgA^+) ×10^9/l", "setting": "[1]; after treatment with IM862", "result": "0.06 ± 0.008 ×10^9/l"}, {"measurement": "B-lymphocytes (IgG^+) %", "setting": "[1]; after treatment with IM862", "result": "14.7 ± 2.16", "unit": "%"}, {"measurement": "B-lymphocytes (IgG^+) ×10^9/l", "setting": "[1]; after treatment with IM862", "result": "0.19 ± 0.023^y ×10^9/l"}, {"measurement": "B-lymphocytes (IgM^+) %", "setting": "[1]; after treatment with IM862", "result": "4.4 ± 0.6", "unit": "%"}, {"measurement": "B-lymphocytes (IgM^+) ×10^9/l", "setting": "[1]; after treatment with IM862", "result": "0.10 ± 0.01 ×10^9/l"}, {"measurement": "B-lymphocytes (Ig^+) %", "setting": "[1]; after treatment with IM862", "result": "16.9 ± 1.7", "unit": "%"}, {"measurement": "B-lymphocytes (Ig^+) ×10^9/l", "setting": "[1]; after treatment with IM862", "result": "0.34 ± 0.05 ×10^9/l"}, {"measurement": "B-lymphocytes Em-RFC %", "setting": "[1]; after treatment with IM862", "result": "12.1 ± 1.5", "unit": "%"}, {"measurement": "B-lymphocytes Em-RFC ×10^9/l", "setting": "[1]; after treatment with IM862", "result": "0.28 ± 0.04 ×10^9/l"}, {"measurement": "Bacilli/nuclei %", "setting": "[1]; after treatment with IM862", "result": "3.8 ± 0.6", "unit": "%"}, {"measurement": "Basophils %", "setting": "[1]; after treatment with IM862", "result": "0.1 ± 0.1", "unit": "%"}, {"measurement": "Body temperature (morning)", "setting": "[1]; after treatment with IM862", "result": "36.2 ± 0.1"}, {"measurement": "ESP, mm/hr", "setting": "[1]; after treatment with IM862", "result": "11.2 ± 1.4", "unit": "mm/hr"}, {"measurement": "Erythrocytes ×10^12/l", "setting": "[1]; after treatment with IM862", "result": "5.2 ± 0.6 ×10^12/l"}, {"measurement": "IgA", "setting": "[1]; after treatment with IM862", "result": "2.40 ± 0.18", "unit": "g/L"}, {"measurement": "IgG", "setting": "[1]; after treatment with IM862", "result": "15.5 ± 0.73", "unit": "g/L"}, {"measurement": "IgM", "setting": "[1]; after treatment with IM862", "result": "1.25 ± 0.12", "unit": "g/L"}, {"measurement": "Segm./nuclei %", "setting": "[1]; after treatment with IM862", "result": "61.9 ± 1.4", "unit": "%"}, {"measurement": "Leukocytes ×10^9/l", "setting": "[1]; [5]", "result": "7.75 ± 0.36 ×10^9/l"}, {"measurement": "Monocytes %", "setting": "[1]; [5]", "result": "5.7 ± 0.4", "unit": "%"}, {"measurement": "Neutrophils %", "setting": "[1]; [5]", "result": "59.8 ± 1.6", "unit": "%"}, {"measurement": "side effects / tolerance", "setting": "[1]; intranasally 100 μg daily, 5 days", "result": "No side effects from its use were noted in any of the patients"}, {"measurement": "relapses, number of patients", "setting": "[1]; observation for 6 months after discharge", "result": 3, "unit": "patients"}, {"measurement": "B-Ig+, %", "setting": "[2]", "result": "11.0 ± 0.3", "unit": "%"}, {"measurement": "B-Ig+, abs", "setting": "[2]", "result": "0.23 ± 0.04 10^9/l"}, {"measurement": "B-IgA+, %", "setting": "[2]", "result": "1.9 ± 0.3", "unit": "%"}, {"measurement": "B-IgA+, abs", "setting": "[2]", "result": "0.04 ± 0.002 10^9/l"}, {"measurement": "B-IgG+, %", "setting": "[2]", "result": "4.8 ± 0.5", "unit": "%"}, {"measurement": "B-IgG+, abs", "setting": "[2]", "result": "0.09 ± 0.007 10^9/l"}, {"measurement": "B-IgM+, %", "setting": "[2]", "result": "4.1 ± 0.6", "unit": "%"}, {"measurement": "B-IgM+, abs", "setting": "[2]", "result": "0.12 ± 0.003 10^9/l"}, {"measurement": "CD2-DR+, &", "setting": "[2]", "result": "32 ± 3 &"}, {"measurement": "CD2-DR+, abs", "setting": "[2]", "result": "0.66 ± 0.10** 10^9/l"}, {"measurement": "CD3, %", "setting": "[2]", "result": "59.2 ± 2.1", "unit": "%"}, {"measurement": "CD3, abs", "setting": "[2]", "result": "1.21 ± 0.15 10^9/l"}, {"measurement": "CD4, %", "setting": "[2]", "result": "36.2 ± 1.7", "unit": "%"}, {"measurement": "CD4, abs", "setting": "[2]", "result": "0.74 ± 0.08 10^9/l"}, {"measurement": "CD8, %", "setting": "[2]", "result": "23.2 ± 2.1", "unit": "%"}, {"measurement": "CD8, abs", "setting": "[2]", "result": "0.48 ± 0.07** 10^9/l"}, {"measurement": "IMI, %", "setting": "[2]", "result": "75 ± 6", "unit": "%"}, {"measurement": "IgA", "setting": "[2]", "result": "1.2 ± 0.4", "unit": "g/L"}, {"measurement": "IgG", "setting": "[2]", "result": "10.9 ± 1.3", "unit": "g/L"}, {"measurement": "IgM", "setting": "[2]", "result": "1.06 ± 0.06", "unit": "g/L"}, {"measurement": "Leukocytes, abs", "setting": "[2]", "result": "5.6 ± 0.4 10^9/l"}, {"measurement": "Lymphocytes, abs", "setting": "[2]", "result": "2.1 ± 0.3 10^9/l"}, {"measurement": "T4/T8", "setting": "[2]", "result": "1.58 ± 0.04"}]}]}
